Measurements from US11040968B2, “Pyridine derivative as ASK1 inhibitor and preparation method and use thereof” (FUJIAN COSUNTER PHARMACEUTICAL CO., LTD., priority 2017, dated 2021).
Read-outs that look alike come from different tables or passages of the source.

Experiments:
ASK1/MAP3K5 = ASK1/MAP3K5 (Homo sapiens (Human), UniProt Q99683); assay: Enzyme activity: ASK1 kinase 33P-ATP filter-binding assay with MBP substrate; assay type: biochemical
Experimental: Experimental Example 1: Enzyme Activity
Primary reaction buffer solution: 20 mM Hepes (pH 7.5), 10 mM MgCl2, 1 mM EGTA, 0.02% Brij35, 0.02 mg/ml BSA, 0.1 mM Na3VO4, 2 mM DTT, 1% DMSO
Treatment of the Compound:
The tested compounds were formulated into a 10 mM stock solution in DMSO, diluted in 3-fold gradient for a total of 10 concentrations, and placed in a 384-well plate (Cyclic Olefin Copolymer LDV Echo®).
Kinase Name: ASK1/MAP3K5 (Invitrogen, Carlsbad, Calif.)
Type: Recombinant Human Full Length Protein, GST-tagged
Final reaction concentration of the enzyme: 20 nM
Substrate: Myelin basic protein, MBP (Active Motif, Carlsbad, Calif.)
Final reaction concentration of the substrate: 20 μM
1. The substrate was dissolved in a freshly prepared primary reaction buffer solution,
2. The desired coenzyme factor was added to the above substrate solution,
3. The kinase was added to the substrate solution and mix gently,
4. The solution tested compound in DMSO was added to the kinase reaction solution and incubated at room temperature for 20 minutes.
5. The reaction was initiated by adding ^33P-ATP (specific activity 10 μCi/μL) to the reaction solution.
6. Incubated at room temperature for 2 hours.
7. A small portion of the reactants were placed onto the P-81 ion exchange filter paper.
8. The filter paper was washed three times with 0.75% phosphate buffer to wash away unbound phosphate, and then dried.
9. The radioactivity remaining on the filter paper was determined,
10. The data for the kinase activity was expressed as the ratio of the kinase activity remaining in the test sample to the kinase activity in the vehicle (DMSO).
11. IC50 values and curve fitting were collected by Prism (GraphPad software).

[1] = Pharmacokinetic characteristics study in mice (plasma, LC-MS/MS); assay type: in vivo; conditions: C57BL/6 male mice
Experimental: Experimental Example 2: Pharmacokinetic Characteristics Study
C57BL/6 male mice were used in this study. The drug concentration in the plasma of mice subjected to intravenous or oral administration of the test compound at different time points were quantitatively determine by LC/MS/MS method, respectively, in order to evaluate the pharmacokinetic characteristics of the tested drugs in mice.
A clear solution of the test compound was injected into C57BL/6 mice via the tail vein (overnight fasting, 7-10 weeks old), and the test compound was intragastrically administered to C57BL/6 mice (overnight fasting, 7-10 weeks old). 30 μL of the blood was collected from the jugular vein or the tail vein of the animals 0.0833, 0.25, 0.5, 1, 2, 4, 6, 8 and 24 hours after administration, and placed in the anticoagulant tube containing EDTA-K2, followed by centrifugation at 4° C. for 15 minutes to collect the plasma. The plasma concentration was determined by LC-MS/MS. The pharmacokinetic parameters were calculated by the non-compartment model linear logarithmic trapezoidal method using WinNonlin™ Version 6.3 (Pharsight, Mountain View, Calif.) pharmacokinetic software.

[2] = recombinant human full length GST-tagged ASK1 20 nM, MBP 20 μM, 33P-ATP, 2 hours room temperature, read-out: IC50
[3] = ASK1 enzyme activity, class symbols, read-out: IC50 value

Chain of ASK1/MAP3K5 (Q99683 whole entry): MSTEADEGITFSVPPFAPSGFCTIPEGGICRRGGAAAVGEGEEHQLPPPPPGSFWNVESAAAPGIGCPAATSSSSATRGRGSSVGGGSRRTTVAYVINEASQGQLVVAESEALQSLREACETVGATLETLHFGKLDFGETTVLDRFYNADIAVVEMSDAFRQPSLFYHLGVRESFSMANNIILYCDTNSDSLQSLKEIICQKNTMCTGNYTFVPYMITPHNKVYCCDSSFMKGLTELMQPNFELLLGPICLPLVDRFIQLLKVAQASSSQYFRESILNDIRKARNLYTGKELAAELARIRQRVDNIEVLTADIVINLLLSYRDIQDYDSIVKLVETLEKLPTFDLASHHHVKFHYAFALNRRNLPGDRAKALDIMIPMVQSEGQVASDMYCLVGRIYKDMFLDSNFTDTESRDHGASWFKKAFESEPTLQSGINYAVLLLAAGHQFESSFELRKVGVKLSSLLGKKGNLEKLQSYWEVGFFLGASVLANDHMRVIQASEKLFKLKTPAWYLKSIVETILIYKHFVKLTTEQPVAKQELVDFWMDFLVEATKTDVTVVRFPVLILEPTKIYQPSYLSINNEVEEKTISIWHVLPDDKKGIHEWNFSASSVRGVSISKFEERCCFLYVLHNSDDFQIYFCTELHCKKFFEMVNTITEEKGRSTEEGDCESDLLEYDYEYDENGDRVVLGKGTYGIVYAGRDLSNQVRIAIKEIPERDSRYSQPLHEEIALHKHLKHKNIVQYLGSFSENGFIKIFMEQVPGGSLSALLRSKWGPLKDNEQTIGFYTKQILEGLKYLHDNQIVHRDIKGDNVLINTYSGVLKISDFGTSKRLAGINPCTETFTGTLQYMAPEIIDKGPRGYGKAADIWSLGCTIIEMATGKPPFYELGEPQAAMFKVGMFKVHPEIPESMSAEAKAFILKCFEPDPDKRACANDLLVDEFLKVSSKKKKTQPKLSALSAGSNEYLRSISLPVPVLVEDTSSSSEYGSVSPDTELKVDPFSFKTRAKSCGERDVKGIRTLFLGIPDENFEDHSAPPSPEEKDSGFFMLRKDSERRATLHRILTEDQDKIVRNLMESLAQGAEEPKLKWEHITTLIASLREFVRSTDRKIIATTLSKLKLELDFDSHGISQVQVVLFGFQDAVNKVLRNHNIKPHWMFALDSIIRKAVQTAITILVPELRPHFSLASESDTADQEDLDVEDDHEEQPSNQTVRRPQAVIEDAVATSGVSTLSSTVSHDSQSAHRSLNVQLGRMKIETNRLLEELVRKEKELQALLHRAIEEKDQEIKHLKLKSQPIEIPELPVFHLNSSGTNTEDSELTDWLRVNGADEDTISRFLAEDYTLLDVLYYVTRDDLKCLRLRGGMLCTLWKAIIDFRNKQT

| Compound | IC50 (ASK1/MAP3K5; [2]) [nM] | IC50 (ASK1/MAP3K5; [3]) [nM] | Exposure ([1]; intravenous or oral (intragastric) administration) [µM·h] | bioavailability ([1]; mouse, intragastric vs intravenous administration) [%] |
| --- | --- | --- | --- | --- |
| COCCOc1cc(F)c(C(=O)Nc2cccc(-c3nnc4n3CCCC4)n2)cc1-n1cnc(C2CC2)c1 [WX007] | 16.6 |  |  |  |
| Cc1cc(F)c(C(=O)Nc2cccc(-c3nnc4n3CCCC4)n2)cc1-n1nnc(C2CC2)n1 [WX004] | > 1000 | > 100 |  |  |
| O=C(Nc1cccc(-c2nnc3n2CCCC3)n1)c1cc(-n2cnc(C3CC3)c2)c(OCC2COC2)cc1F [WX011] | 7.61 |  |  |  |
| Cc1cc(F)c(C(=O)Nc2cccc(-c3nnc4n3CCCC4)n2)cc1-n1cc(C2CC2)nn1 [WX003] | 943 | > 100 |  |  |
| O=C(Nc1cccc(-c2nnc3n2CCCC3)n1)c1cc(-n2cnc(C3CC3)c2)c(-c2cccnc2)cc1F [WX006] | 19.2 |  |  |  |
| CC1(COc2cc(F)c(C(=O)Nc3cccc(-c4nnc5n4CCCC5)n3)cc2-n2cnc(C3CC3)c2)COC1 [WX010] | 7.2 |  |  |  |
| O=C(Nc1cccc(-c2nnc3n2CCCC3)n1)c1cc(-n2cnc(C3CC3)c2)c(OCCCF)cc1F [WX013] | 7.93 |  |  |  |
| Cc1cc(F)c(C(=O)Nc2cccc(-c3nnc4n3CCCC4)n2)cc1-n1cnc(C2CC2)n1 [WX005] | 35.3 | ≤ 100 |  |  |
| CN(C)c1cc(F)c(C(=O)Nc2cccc(-c3nnc4n3CCCC4)n2)cc1-n1cnc(C2CC2)c1 [WX014] | 10.7 |  |  |  |
| O=C(Nc1cccc(-c2nnc3n2CCCC3)n1)c1cc(-n2cnc(C3CC3)c2)c(N2CCOCC2)cc1F [WX015] | 10.1 |  |  |  |

The remaining compounds from weak to strong by IC50 (ASK1/MAP3K5; [2]), led by results:

| IC50 (ASK1/MAP3K5; [2]) [nM] | IC50 (ASK1/MAP3K5; [3]) [nM] | Exposure ([1]; intravenous or oral (intragastric) administration) [µM·h] | bioavailability ([1]; mouse, intragastric vs intravenous administration) [%] | Compound |
| --- | --- | --- | --- | --- |
| 7.04 |  |  |  | O=C(Nc1cccc(-c2nnc3n2CCCC3)n1)c1cc(-n2cnc(C3CC3)c2)c(OCCF)cc1F [WX012] |
| 5.6 | ≤ 100 | 408.566 | 156 | Cc1cc(F)c(C(=O)Nc2cccc(-c3nnc4n3CCCC4)n2)cc1-n1cnc(C2CC2)c1 [WX002] |
| 5.44 |  |  |  | O=C(Nc1cccc(-c2nnc3n2CCCC3)n1)c1cc(-n2cnc(C3CC3)c2)c(O)cc1F [WX008] |
| 4.12 |  |  |  | Cc1cc(F)c(C(=O)Nc2cccc(-c3nnc4n3CCCC4O)n2)cc1-n1cnc(C2CC2)c1 (stereo not shown) [WX016] |
| 1.82 | ≤ 100 |  |  | Cc1cc(F)c(C(=O)Nc2cccc(-c3nnc4n3CCC4)n2)cc1-n1cnc(C2CC2)c1 [WX001] |
